Measured values: patent publication US20180078576A1, “SULPHATED XYLANS FOR TREATMENT OR PROPHYLAXIS OF RESPIRATORY DISEASES” (Paradigm Biopharmaceuticals Limited, priority 2007, published 2018)

Experiments:
[1] = target: T1, recombinant human IL-4 (rhIL-4) (Homo sapiens, UniProt P05112); experiment: BIAcore inhibition of IL-4 binding to immobilized heparin; conditions: BIAcore chip, titration, FIG. 3A
T1 construct: made in house; host or cells: baculovirus expression system
T1 sequence (P05112 25-153): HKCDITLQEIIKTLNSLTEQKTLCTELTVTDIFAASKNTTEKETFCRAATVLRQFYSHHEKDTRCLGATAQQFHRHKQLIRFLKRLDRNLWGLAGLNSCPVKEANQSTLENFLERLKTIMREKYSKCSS
Description: (§1) The optical phenomenon of surface plasmon resonance is used to monitor physical interactions between molecules. Passing a solution of a potential protein ligand (e.g. IL-4, IL-5 or eotaxin) over a sensor surface to which a target (e.g. heparin) is coupled monitors the real-time binding of protein ligands to the immobilized target. Detection is achieved by measuring refractive index changes very close to the sensor surface. When the refractive index is altered, the angle at which plasmon resonance occurs changes and this change directly correlates with the amount of protein interacting with the surface. A BIAcore 2000 is conveniently used. […]
(§2) Biotinylated heparin is immobilized on the biosensor chip. […] Solutions containing potential protein ligands of interest are injected over the sensor chip surface, and the binding is measured in real time (Fernig, In: Proteoglycan protocols, Ed. R. V. Iozzo, Humana Press, Totowa, N.J., USA, 2001). Baculovirus expressed recombinant human IL-4 (rhIL-4) and baculovirus expressed recombinant human IL-5 (rhIL-5) readily bind to heparin immobilized by this method (see PCT/AU2005/000551). […] Similarly, recombinant human eotaxin (CCL11) expressed in E. coli binds readily to immobilized heparin and binding is specific as there is little eotaxin binding to sensor chips lacking heparin. […]

eotaxin-2 = target: T2, eotaxin-2 (Homo sapiens, UniProt O00175); experiment: BIAcore inhibition of eotaxin-2 binding to immobilized heparin; conditions: BIAcore chip, FIG. 3E
T2 sequence (O00175 27-119): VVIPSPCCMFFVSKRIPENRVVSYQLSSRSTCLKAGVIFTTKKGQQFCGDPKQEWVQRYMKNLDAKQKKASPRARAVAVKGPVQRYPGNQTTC
Description: as §1, §2

IL-4 = target: T3, IL-4 (Homo sapiens, UniProt P05112); experiment: IL-4 dependent TF-1.8 cell proliferation (luciferase); format: cell-based
T3 construct: made in house
T3 sequence (P05112 25-153): T1 sequence (P05112 25-153)
Description: PPS inhibited the proliferation of a human IL-4 responsive cell line. This occurs at very low doses and is not due to a toxic effect of the pentosan polysulfate because other, similarly sulfated polysaccharides, at the same concentrations of IL-4 and polysaccharide have no effect. These experiments utilize the TF-1.8 cells. TF-1.8 cells are a subclone of the TF-1 cells that have been selected for growth in IL-4 or IL-5. TF-1 cells were originally established from a bone marrow sample from a person with severe pancytopenia. These cells are dependent on IL-3 or GM-CSF for long term growth and are responsive to a variety of cytokines including IL-4, […].
TF-1.8 cells have been transfected with the firefly luciferase gene contained in the expression vector, pPGK-puromycin-luciferase (Coombe et al, 1998, supra). […] The cells are counted with a Coulter Z2 Particle Counter and Size Analyzer (Coulter Electronics, England) and routinely 2.5×10^4 cells are added to microplate wells that contain either no IL-4 (negative control) or various dilutions of IL-4. When the effect of PPS, or other sulfated polysaccharides is to be measured, the wells also contain various concentrations of these molecules. […]
The size of the sulfated xylose polysaccharides is also an important component of its anti-IL-4 activity. […] Light emissions are detected on a Victor 1420 Multi-label counter (Wallac, Turku, Finland). […]

Elastase = target: T4, Elastase (Homo sapiens, UniProt P08246); experiment: Elastase activity on collagen substrate; format: biochemical; conditions: collagen coated wells, 37° C., 30 minutes
T4 sequence (P08246 30-267): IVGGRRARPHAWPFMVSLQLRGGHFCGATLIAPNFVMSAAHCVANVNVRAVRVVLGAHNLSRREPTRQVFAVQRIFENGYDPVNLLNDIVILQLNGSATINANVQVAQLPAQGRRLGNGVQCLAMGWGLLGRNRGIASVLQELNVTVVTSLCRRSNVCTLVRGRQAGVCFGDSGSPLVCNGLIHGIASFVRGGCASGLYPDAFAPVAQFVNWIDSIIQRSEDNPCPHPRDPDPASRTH
Description: Elastase activity was also measured using a physiological substrate, collagen. For these experiments collagen was coated onto the wells of a microplate. Tris buffer (50 μl) was added together with 25 μl of either inhibitor (PPS or other sulfated polysaccharides) or buffer. The plate was incubated at 37° C. for 30 minutes, before staining the wells for protein. After drying the wells at room temperature the remaining colour was dissolved by adding 200 μl of lysis solution (10% w/v SDS in DMSO) and the OD measured at […]. Control experiments include collagen without enzyme digestion as 100% values and with enzyme digestion but without inhibitor as 0% values.

IC50 [1]: 25 to 80 nM | IC50 (eotaxin-2): ~15 nM | Inhibition of IL-4 dependent proliferation of TF-1.8 cells (in words) (IL-4; dose-response, FIG. 5): markedly inhibits | Percentage Inhibition of IL-4 induced TF-1.8 cell proliferation (IL-4; inhibitor 5.0 μg/ml, IL-4 2.5 ng/ml, 48 hours): 58% | Inhibition of elastase activity on collagen (in words) (Elastase): effective elastase inhibitor
Substance: Pentosan polysulfate [PPS]
